Reference: patent publication US12441775B2, “BCL-W polypeptides and mimetics for treating or preventing chemotherapy-induced peripheral neuropathy and hearing loss” (Dana-Farber Cancer Institute, Inc., priority 2016, dated 2025)

Tests used:
bclw+/+ and bclw−/− mice = assay: Noxious thermal sensation threshold, 50° C. hot-plate; format: in vivo, mouse; conditions: paclitaxel 4 mg/kg every other day for 8 days
Procedure: Paclitaxel treatment and behavioral testing. 2 month old age-matched bclw−/− and bclw+/+ mice (17-30 g) of either sex were injected intraperitoneally (IP) with 4 mg/kg paclitaxel (Bristol-Myers Squibb) every other day for 8 days (4 total injections). Paclitaxel was prepared as 1 part 6 mg/ml paclitaxel stock solution diluted in vehicle (1:1 v/v Cremophor EL [EMD Millipore] and dehydrated ethanol) and 2 parts sterile saline and injected at 10 μl/g. Control mice were injected with 1 part vehicle and 2 parts saline. […] For three days prior to the baseline testing, mice were weighed, trained on an automated RotaRod apparatus (4 rpm for 1 min without falling), and habituated in von Frey cages. The next two days, baseline behavioral performance was assessed and averaged. The first paclitaxel injection was given three days later, and mice were weighed and behaviorally tested 10 days after the final injection. To assay motor function, mice were placed on the RotaRod with a ramp of 4-40 rpm and 0.4 rpm/sec acceleration, and latency to fall was measured. […] Withdrawal threshold was determined to be the applied force at which the animal withdrew the stimulated paw on at least 2 of 10 applications. […] Mouse behavior was assessed by an experimenter blind to genotype and condition.

BclxL = assay: qRT-PCR and Western blot of cell body and axon lysate after paclitaxel; format: cell-based, rat; conditions: 24 hours paclitaxel to axons; axons or cell bodies
Procedure: (§1) Cell culture. Compartmented chamber (Campenot) cultures were prepared as described (see, e.g., Fenstermacher et al., Springer Protocols: Neuromethods, 103:105-124 (2015)), with modifications. Briefly, DRGs from embryonic day 15 (E15) rats of either sex were dissected and trypsinized. DRGs (1.2×10^5 cells) were plated in the center compartment of a Teflon divider (Camp10, Tyler Research; Campenot, 1982) affixed to a p35 culture dish coated with growth factor reduced Matrigel basement membrane (BD Biosciences) 1:45 in DMEM. Cultures were maintained in media consisting of Neurobasal (Invitrogen) with 2% B27 supplement (Invitrogen), 1% penicillin-streptomycin, 1% GlutaMAX (Life Technologies), 0.08% glucose, and 0.3 μM cytosine arabinoside (AraC) at 37° C., 7.5% CO2; BDNF+NGF (PeproTech) were added to the cell body compartment at a concentration of 10 ng/ml and to the axon compartment at a concentration of 100 ng/ml for 2d. On day 3, media was replaced and the AraC was omitted. On day 5, neurotrophins were removed from the cell body compartment and reduced to 1 ng/ml in the axon compartments for 3-5 days. For paclitaxel treatment experiments, 30 μM paclitaxel (Sigma-Aldrich) or vehicle control (0.1% DMSO) was added to either cell body or distal axon compartments on day 7 for 24 hours. For calpain inhibition experiments, 20 μM calpain inhibitor III (VWR) and paclitaxel were added simultaneously to distal axon compartment.
(§2) Western blotting. […] Using NIH ImageJ software, protein levels were quantified and levels of protein were normalized to GAPDH.
(§3) Quantitative reverse transcription-PCR. […] Quantitative real-time RT-PCR was performed using Taqman Gene expression assays (Applied Biosystems) to assess the expression of bclw (Rn00821025_g1), bcl2 (Rn99999125_m1), and bclxL (Rn00580568_g1). […]

Bclw = assay: as above; format: cell-based, rat; conditions: 24 hours paclitaxel to axons; axons vs cell bodies
Procedure: as §1, §2, §3

Bcl2 = assay: as above; format: cell-based, rat; conditions: 24 hours paclitaxel to axons; axons or cell bodies
Procedure: as §1, §2, §3

CC(=O)O[C@H]1C(=O)[C@@]2(C)[C@H]([C@H](OC(=O)c3ccccc3)[C@]3(O)C[C@H](OC(=O)[C@H](O)[C@@H](NC(=O)c4ccccc4)c4ccccc4)C(C)=C1C3(C)C)[C@]1(OC(C)=O)CO[C@@H]1C[C@@H]2O [paclitaxel]
thermal pain sensitivity (hot-plate) (bclw+/+ and bclw−/− mice; bclw+/+ mice): mild thermal hyperalgesia
thermal pain sensitivity (hot-plate) (bclw+/+ and bclw−/− mice; bclw−/− mice): more severe thermal pain sensitivity
BclxL mRNA or protein (BclxL): did not alter
Bclw mRNA and protein levels (Bclw): reduced Bclw mRNA and protein levels selectively in axons and not in cell bodies
Bcl2 mRNA or protein (Bcl2): did not alter
